# Experimental data: US12297164B2, “Benzidine compound and application thereof” (Guangzhou IMD therapeutics Co., Ltd., priority 2019, dated 2025)
# Where two headings read alike, the source gives them in different places.
# Columns and labels:
# RORγ [1] = molecular target: T1, RORγ (Homo sapiens (Human), UniProt P51449); experiment: AlphaScreen inhibitory activity on RORγ protein; format: biochemical; settings: RORγ 200 nM, bSRC1-4 50 nM
# Protocol: Experimental materials: target protein RORγ with the final concentration of 200 nM; experimental buffer (10×) MOPS (500 mM) PH 7.4, CHAPS (0.5 mM), NaF (500 mM), and
# The mixture was centrifuged at room temperature at 1000 rpm for 1 minute to make the system fully mixed. After being wrapped in tin foil, the mixture was incubated in the dark for 1.5 hours.
# Target sequence in this assay (P51449 whole entry): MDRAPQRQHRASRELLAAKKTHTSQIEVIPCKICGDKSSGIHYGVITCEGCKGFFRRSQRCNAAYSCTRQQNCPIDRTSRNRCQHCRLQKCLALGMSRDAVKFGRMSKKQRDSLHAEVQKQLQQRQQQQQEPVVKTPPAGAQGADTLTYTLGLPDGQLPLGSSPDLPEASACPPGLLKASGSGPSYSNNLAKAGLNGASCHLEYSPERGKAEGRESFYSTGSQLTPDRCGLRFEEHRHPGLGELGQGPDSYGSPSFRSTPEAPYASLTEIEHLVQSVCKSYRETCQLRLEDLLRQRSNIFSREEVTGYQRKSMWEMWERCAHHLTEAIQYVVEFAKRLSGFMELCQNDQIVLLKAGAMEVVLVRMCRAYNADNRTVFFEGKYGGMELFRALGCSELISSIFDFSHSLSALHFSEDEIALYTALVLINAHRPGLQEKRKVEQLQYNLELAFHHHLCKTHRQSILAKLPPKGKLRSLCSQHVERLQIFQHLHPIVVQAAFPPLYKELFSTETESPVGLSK
# RORγ [2] = molecular target: T1, RORγ; experiment: Luciferase double reporter gene assay (Gal4-RORγLBD) in 293T cells; format: cell-based; settings: 24 hours of incubation
# Protocol: The cells were cultured in a 96-well plate one day before transfection, with a cell density of 1.5×10^4 cells/well. After 24 hours of adherent growth, the cells were subjected to transient transfection by using the method of double reporter gene co-transfection with the transfection reagent of Lipo-fectamine 2000, where the transfection reagent and plasmids were diluted with Opti-MEM reagent, respectively. […] Each sample had 3 duplicate wells.
# Target sequence in this assay (P51449 269-508): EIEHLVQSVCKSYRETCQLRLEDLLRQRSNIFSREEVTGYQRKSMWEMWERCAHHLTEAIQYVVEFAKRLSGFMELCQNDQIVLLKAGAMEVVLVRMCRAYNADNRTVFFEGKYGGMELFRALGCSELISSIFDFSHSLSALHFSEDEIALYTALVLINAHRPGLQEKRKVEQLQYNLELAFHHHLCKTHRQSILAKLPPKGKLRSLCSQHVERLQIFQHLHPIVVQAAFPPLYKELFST
# RORγ [3] = molecular target: T1, RORγ; experiment: TSA detection (thermal shift); format: binding; settings: protein 10 μM
# Protocol: Experimental materials: hRORγ protein, fluorescent dye Sypro Orange, 10p buffer, ultrapure water, and HSP-96 well reaction plates.
# Experimental method: The diluted protein (with the final concentration of 10 μM), fluorescent dye (with the final concentration of 5×), 10× TSA buffer, and double distilled water were prepared into a mixed solution with final component volumes of 1 μL, 1 μL, 1 μL, and 2 μL, receptively. The mixed solution was transferred to an HSP-96 well reaction plate, 5 μL each well. The ligand, i.e., small molecule compound, was added, 5 μL per well, with the final concentration of 200 µM. The mixture was centrifuged at room temperature at 1000 rpm for 1 minute to make the system fully mixed. The mixture was placed on an ice bath in low light for more than 30 minutes, and after that, put into RT-PCR instrument for testing. The temperature was set from 30° C. to 80° C., and the mixture was detected every time the temperature was raised by 0.5° C. and every 5 seconds.
# Target sequence in this assay (P51449 whole entry): as the sequence (P51449 whole entry) above
# [4] = system: 293T (human renal epithelial cell line transfected with adenovirus E1A gene, expressing SV40 large T antigen); experiment: Cell-Titer GLO cell inhibition; format: cell-based; settings: Homo sapiens, HEK-293T
# Protocol: (§1) Experimental materials: fluorescence signal detection instrument: EnSpire Alpha 2390 multifunctional microplate reader (produced by Perkin Elmer Company); 384-well bottom permeable microwell plate; Cell-Titer GLO luminescent reagent; cancer cells to be tested; medium and fetal bovine serum required for cell culture.
# (§2) […]. After incubation with the compound for 72 to 144 hours, Cell-Titer GLO reagent 25-T was added to each well, and the plate was shaken for 20 minutes to lyse the cells. After incubation for 10 minutes, the cells were centrifuged for 1 minute, the signal value of luminescence 384 was measured. The inhibition curve was fitted by GraphPad Prism software to obtain IC50.
# [5] = system: A549 (non-small cell lung cancer); experiment: Cell-Titer GLO cell inhibition; format: cell-based; settings: Homo sapiens
# Protocol: as §1, §2
# [6] = system: Cos7 (African green monkey kidney cells); experiment: Cell-Titer GLO cell inhibition; format: cell-based; settings: Chlorocebus sabaeus, COS-7
# Protocol: as §1, §2
# [7] = system: H1975 (lung cancer cells); experiment: Cell-Titer GLO cell inhibition; format: cell-based; settings: Homo sapiens, NCI-H1975
# Protocol: as §1, §2
# HFL-1 (lung fibroblasts) = experiment: Cell-Titer GLO cell inhibition; format: cell-based; settings: Homo sapiens, HFL1
# Protocol: as §1, §2
# [8] = system: HL-7702 (liver epithelial cells); experiment: Cell-Titer GLO cell inhibition; format: cell-based; settings: Homo sapiens, L02
# Protocol: as §1, §2
# HT-29 (colon cancer) = experiment: Cell-Titer GLO cell inhibition; format: cell-based; settings: Homo sapiens
# Protocol: as §1, §2
# [9] = system: Hela (cervical cancer cells); experiment: Cell-Titer GLO cell inhibition; format: cell-based; settings: Homo sapiens
# Protocol: as §1, §2
# [10] = system: Hs578T (triple negative breast cancer); experiment: Cell-Titer GLO cell inhibition; format: cell-based; settings: Homo sapiens, Hs-578T
# Protocol: as §1, §2
# [11] = system: MCF-7 (ER + breast cancer); experiment: Cell-Titer GLO cell inhibition; format: cell-based; settings: Homo sapiens, MCF7
# Protocol: as §1, §2
# [12] = system: MDA-MB-231 (triple negative breast cancer); experiment: Cell-Titer GLO cell inhibition; format: cell-based; settings: Homo sapiens
# Protocol: as §1, §2
# MV-4-11 (acute leukemia) = experiment: Cell-Titer GLO cell inhibition; format: cell-based; settings: Homo sapiens, MV4-11
# Protocol: as §1, §2
# U2OS (osteosarcoma) = experiment: Cell-Titer GLO cell inhibition; format: cell-based; settings: Homo sapiens
# Protocol: as §1, §2
# [13] = system: VcaP (AR-positive prostate cancer); experiment: Cell-Titer GLO cell inhibition; format: cell-based; settings: Homo sapiens, VCaP
# Protocol: as §1, §2
# [14] = system: Du145 (AR-negative prostate cancer); experiment: Cell-Titer GLO cell inhibition; format: cell-based; settings: Homo sapiens, DU-145
# From the text: (§3) The inhibition curve was fitted by GraphPad Prism software to obtain IC50.
# [15] = system: PC-3 (AR-negative prostate cancer); experiment: Cell-Titer GLO cell inhibition; format: cell-based
# From the text: as §3
# RORγ [16] = molecular target: T1, RORγ; experiment: ITC binding activity; settings: read-out: Kd ITC, 25° C., pH 7.5
# Target sequence in this assay (P51449 whole entry): as above
# [17] = Pharmacokinetics in SD rats; settings: for F: oral administration 10 mg/kg vs intravenous 2 mg/kg
# Protocol: MATERIALS: Pharmacokinetic analysis was performed by Medicilon Corporation in Shanghai. Twelve Sprague and Dawley rats were provided by Super-B&K laboratory animal Corp. Ltd in Shanghai.
# Experimental method: The compound was dissolved in DMSO:PEG 400:20% HP-400 (5:40:55, v:v:v) to serve as a stock solution (0.4 mg/ml, intravenous injection; 1 mg/ml, oral administration). The stock solution was administrated orally to three SD rats at a dose of 10 mg/kg, and administrated intravenously to three SD rats at a single dose of 2 mg/kg. Blood was collected from the jugular vein before oral administration and at 0.25, 0.5, 1, 2, 4, 6, 8, and 24 hours after oral administration. Blood was collected from the jugular vein before intravenous injection and at 0.083, 0.25, 0.5, 1, 2, 4, 6, 8, and 24 hours after intravenous injection. About 200 μL of blood sample was collected into a heparinized tube and immediately centrifuged at 8000 rpm for 6 minutes, and the resulting plasma was stored at −80° C. until analysis.
# RORγ [18] = molecular target: T1, RORγ; experiment: Specificity luciferase reporter assay in 293T cells, RORγ; settings: read-out: IC50 RORγ, reporter gene
# Target sequence in this assay (P51449 269-508): as the sequence (P51449 269-508) above
# Protocol: The cells were cultured in a 96-well plate one day before transfection, with a cell density of 1.5×10^4 cells/well. After 24 hours of adherent growth, the cells were subjected to transient transfection by using the method of double reporter gene co-transfection with the transfection reagent of Lipo-fectamine 2000, and the transfection reagent and plasmids were diluted with Opti-MEM reagent, respectively. Gal4-RORγLBD was 25 ng per well; PG5-luc gene was 25 ng per well; and Renilla was 5 ng per well. After 24 hours of co-transfection, different concentrations of compounds were added. After 24 hours of incubation, Luciferase double reporter gene detection kit was used to detect luminescence signals. Each sample had 3 duplicate wells. The IC50 value (half inhibitory concentration) was calculated by software.
# [19] = system: 22Rv1 (AR-positive prostate cancer); experiment: Cell-Titer GLO cell inhibition; format: cell-based; settings: Homo sapiens
# From the text: as §3
# RORα = RORα (Homo sapiens (Human), UniProt P35398); experiment: Specificity luciferase reporter assay in 293T cells, RORα; format: cell-based; settings: reporter gene
# Protocol: The cells were cultured in a 96-well plate one day before transfection, with a cell density of 1.5×10^4 cells/well. After 24 hours of adherent growth, the cells were subjected to transient transfection by using the method of double reporter gene co-transfection with the transfection reagent of Lipo-fectamine 2000, and the transfection reagent and plasmids were diluted with Opti-MEM reagent, respectively. […] Each sample had 3 duplicate wells.
# [20] = SD rats, intravenous injection, 2 mg/kg
# [21] = Sprague-Dawley, rat, in vivo, iv, 2 mg/kg
# [22] = Sprague-Dawley, rat, in vivo, po, 10 mg/kg
# Sequence of RORα (P35398 whole entry): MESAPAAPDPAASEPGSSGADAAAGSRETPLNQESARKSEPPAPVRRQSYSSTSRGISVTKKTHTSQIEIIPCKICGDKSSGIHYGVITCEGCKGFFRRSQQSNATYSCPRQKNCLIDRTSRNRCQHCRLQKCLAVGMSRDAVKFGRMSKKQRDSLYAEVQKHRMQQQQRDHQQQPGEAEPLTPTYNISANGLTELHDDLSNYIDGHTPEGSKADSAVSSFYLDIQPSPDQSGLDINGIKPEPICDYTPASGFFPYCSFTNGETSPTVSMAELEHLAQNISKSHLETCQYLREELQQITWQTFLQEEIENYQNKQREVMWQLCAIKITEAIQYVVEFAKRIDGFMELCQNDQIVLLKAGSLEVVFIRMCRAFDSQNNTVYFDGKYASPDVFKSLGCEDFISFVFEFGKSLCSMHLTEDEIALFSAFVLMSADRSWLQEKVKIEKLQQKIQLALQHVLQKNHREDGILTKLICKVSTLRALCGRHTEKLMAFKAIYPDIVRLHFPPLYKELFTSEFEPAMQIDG
structure (smiles),measurement,setting,value
"CS(=O)(=O)c1ccc(CC(=O)Nc2ccc(-c3ccc(C(O)(C(F)(F)F)C(F)(F)F)cc3F)cc2)cc1 [Example 1, N-(2′-fluoro-4′-(1,1,1,3,3,3-hexafluoro-2-hydroxypropan-2-yl)-[1,1′-biphenyl]-4-yl)-2-(4-(methylsulfonyl)phenyl)acetamide]",IC50,RORγ [1],2.28 ± 0.05 µM
same,IC50,RORγ [2],0.12 µM
same,ΔTm,RORγ [3],7.8 °C
same,IC50,"[4]; 293T, ~ = estimate, read-out: IC50",15.3 µM
same,IC50,[5],22 µM
same,IC50,[6],40 µM
same,IC50,[7],24 µM
same,IC50,HFL-1 (lung fibroblasts),30 µM
same,IC50,[8],~34.6 µM
same,IC50,HT-29 (colon cancer),14.6 µM
same,IC50,[9],31.4 µM
same,IC50,[10],18.4 µM
same,IC50,[11],13.3 µM
same,IC50,[12],~34.7 µM
same,IC50,MV-4-11 (acute leukemia),4.82 µM
same,IC50,U2OS (osteosarcoma),34.5 µM
same,IC50,[13],12.8 µM
same,IC50,[14],19.1 µM
same,IC50,[15],16 µM
same,Kd,RORγ [16],0.56 µM
same,Cl,[17]; [20],0.19373 ± 0.01228 L/h/kg
same,Vz,[17]; [20],3.54 ± 0.271 L/kg
same,F,[17]; SD rats,51.91%
same,Tmax,"[17]; SD rats, oral administration, 10 mg/kg",5.33 ± 2.31 h
same,AUC(0-inf),[17]; [21],10.4 ± 0.664 µg·h/mL
same,AUC(0-t),[17]; [21],7.66 ± 0.329 µg·h/mL
same,Cmax,[17]; [21],0.98 ± 0.0532 µg/mL
same,Tmax,[17]; [21],0.08 h
same,half-life,[17]; [21],12.7 ± 1.21 h
same,AUC(0-inf),[17]; [22],24.5 ± 5.81 µg·h/mL
same,AUC(0-t),[17]; [22],21.6 ± 3.95 µg·h/mL
same,Cmax,[17]; [22],1.42 ± 0.161 µg/mL
same,half-life,[17]; [22],8.67 ± 0.05 h
same,IC50,RORγ [18],0.12 ± 0.03 µM
"CCS(=O)(=O)c1ccc(CC(=O)Nc2ccc(-c3ccc(C(O)(C(F)(F)F)C(F)(F)F)cc3F)cc2)cc1 [Example 2, 2-(4-(ethylsulfonyl)phenyl)-N-(2′-fluoro-4′-(1,1,1,3,3,3-hexafluoro-2-hydroxypropan-2-yl)-[1,1 1,1′-biphenyl]-4-yl)acetamide]",IC50,[4],6.22 µM
same,IC50,[5],7.08 µM
same,IC50,[6],29 µM
same,IC50,[7],16 µM
same,IC50,HFL-1 (lung fibroblasts),~31.9 µM
same,IC50,[8],~50 µM
same,IC50,HT-29 (colon cancer),6.07 µM
same,IC50,[9],25.1 µM
same,IC50,[10],11.9 µM
same,IC50,[11],10.5 µM
same,IC50,[12],~80 µM
same,IC50,MV-4-11 (acute leukemia),9.48 µM
same,IC50,U2OS (osteosarcoma),15.9 µM
same,IC50,[13],13 µM
same,IC50,[19],14.5 ± 1.1 µM
same,IC50,[14],11.5 µM
same,IC50,[15],15 µM
"O=C(Cc1ccc([N+](=O)[O-])cc1)Nc1ccc(-c2ccc(C(O)(C(F)(F)F)C(F)(F)F)cc2F)cc1 [Example 3, N-(2′-fluoro-4′-(1,1,1,3,3,3-hexafluoro-2-hydroxypropan-2-yl)-[1,1′-biphenyl]-4-yl)-2-(4-nitrophenyl)acetamide]",IC50,RORγ [1],4.85 ± 0.04 µM
same,IC50,RORγ [2],1.49 µM
same,ΔTm,RORγ [3],6 °C
"O=C(Cc1ccccc1[N+](=O)[O-])Nc1ccc(-c2ccc(C(O)(C(F)(F)F)C(F)(F)F)cc2F)cc1 [Example 4, N-(2′-fluoro-4′-(1,1,1,3,3,3-hexafluoro-2-hydroxypropan-2-yl)-[1,1′-biphenyl]-4-yl)-2-(2-nitrophenyl)acetamide]",IC50,RORγ [1],3.46 ± 1.32 µM
same,IC50,RORγ [2],0.19 µM
same,ΔTm,RORγ [3],4.2 °C
same,inhibitory rate on RORα,RORα,37%
same,IC50,RORα; NA = no inhibitory effect,7.57 ± 0.01 µM
same,Kd,RORγ [16],0.78 µM
same,Cl,[17]; [20],0.32667 ± 0.09257 L/h/kg
same,Tmax,[17]; [20],0.19 ± 0.10 h
same,Vz,[17]; [20],3.42 ± 0.594 L/kg
same,F,[17]; SD rats,19%
same,AUC(0-inf),[17]; [21],6.44 ± 1.72 µg·h/mL
same,AUC(0-t),[17]; [21],3.33 ± 0.495 µg·h/mL
same,Cmax,[17]; [21],0.839 ± 0.0381 µg/mL
same,half-life,[17]; [21],7.67 ± 2.36 h
same,AUC(0-t),[17]; [22],3.22 ± 0.781 µg·h/mL
same,Cmax,[17]; [22],0.721 ± 0.12 µg/mL
same,Tmax,[17]; [22],8 h
same,IC50,RORγ [18],0.19 ± 0.02 µM
"Nc1ccc(CC(=O)Nc2ccc(-c3ccc(C(O)(C(F)(F)F)C(F)(F)F)cc3F)cc2)cc1 [Example 5, 2-(4-aminophenyl)-N-(2′-fluoro-4′-(1,1,1,3,3,3-hexafluoro-2-hydroxypropan-2-yl)-[1,1′-biphenyl]-4-yl)acetamide]",IC50,RORγ [1],2.68 µM
same,IC50,RORγ [2],4.16 µM
same,ΔTm,RORγ [3],1.5 °C
"Nc1ccccc1CC(=O)Nc1ccc(-c2ccc(C(O)(C(F)(F)F)C(F)(F)F)cc2F)cc1 [Example 6, 2-(2-aminophenyl)-N-(2′-fluoro-4′-(1,1,1,3,3,3-hexafluoro-2-hydroxypropan-2-yl)-[1,1′-biphenyl]-4-yl)acetamide]",IC50,RORγ [1],5.17 µM
same,IC50,RORγ [2],0.96 µM
same,ΔTm,RORγ [3],1.5 °C
CCCCC(=O)Nc1ccc(-c2ccc(C(O)(C(F)(F)F)C(F)(F)F)cc2F)cc1 [Example 7],IC50,RORγ [1],10.2 ± 1.61 µM
same,IC50,RORγ [2],4.17 µM
same,ΔTm,RORγ [3],6.3 °C
